Columns and labels:
Human DAPK1 = Human DAPK1 (Homo sapiens, UniProt P53355); test: DAPK1 activity, cell free kinase assay; type: biochemical; conditions: cell free assay
Procedure: The effect of (+)-KDT501 and (−)-KDT501 on death-associated protein kinase 1 (DAPK1) activity was evaluated.
Human DAPK1 was incubated with 8 mM MOPS, pH 7.0, 0.2 mM EDTA, 250 μM ZIP peptide substrate ([…]), 10 mM MgOAc, and [γ-^33P-ATP] (specific activity approximately 500 cpm/pmol, concentration as required). (+)-KDT501 or (−)-KDT501 at varying concentrations (100, 30, 10, 1, 0.3, 0.1, 0.03, 0.01 μM) were added to the reaction mixture. The reaction was initiated by addition of the MgATP mix. After incubation for 40 minutes at room temperature, the reaction was stopped by addition of 3% phosphoric acid solution. 10 μL of reaction mixture was spotted onto a P30 filtermat, washed three times for five minutes in 75 mM phosphoric acid and once in methanol prior, then dried and subjected to scintillation counting.

PPARδ = biological target: T1, PPARδ (Homo sapiens, UniProt Q03181); test: PPARδ luciferase reporter assay; type: cell-based; conditions: reporter cells, 20 hours
T1 sequence (Q03181 1-441): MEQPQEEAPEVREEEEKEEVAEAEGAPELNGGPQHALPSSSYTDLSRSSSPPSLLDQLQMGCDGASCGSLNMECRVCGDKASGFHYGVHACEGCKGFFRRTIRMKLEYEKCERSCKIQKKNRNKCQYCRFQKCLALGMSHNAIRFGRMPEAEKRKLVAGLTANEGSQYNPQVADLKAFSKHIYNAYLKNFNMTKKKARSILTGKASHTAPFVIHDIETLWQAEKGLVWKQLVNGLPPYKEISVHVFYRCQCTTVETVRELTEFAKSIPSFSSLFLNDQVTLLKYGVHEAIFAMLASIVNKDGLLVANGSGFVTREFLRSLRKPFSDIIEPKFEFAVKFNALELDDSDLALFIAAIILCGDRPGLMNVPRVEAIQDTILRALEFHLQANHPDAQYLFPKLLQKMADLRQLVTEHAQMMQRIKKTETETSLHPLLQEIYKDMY
Procedure: (§1) The functional effect of (+)-KDT501 on PPARα, PPARδ, and PPARγ activity was evaluated using a PPAR reporter assay (INDIGO Biosciences, PA). This assay utilizes non-human mammalian cells engineered to provide constitutive high level expression of PPARα, PPARδ, or PPARγ and containing a luciferase report gene specific to the appropriate PPAR. Following activation by agonist binding, PPAR induces expression of the luciferase reporter gene. Luciferase activity therefore provides a surrogate for measuring PPAR activity in agonist-treated cells.
(§2) Reporter cells were plated on a 96-well plate at 100 μL per well, and 100 μL of (+)-KDT501 at various final concentrations (25, 12.5, 6.25, 3.125, 1.56 and 0.78 μM) was added to each well. […] 0.1% DMSO was also used as a negative control for each assay. Plates are incubated for 20 hours in a humidified incubator at 37° C. and 5% CO2. After incubation, cell medium was discarded and the cells were treated with 100 μL of luciferase detection reagent for 15 minutes. Plates were analyzed using a luminometer (Victor2, Perkin Elmer). Average relative light unit (RLU) and standard deviation were analyzed using GraphPad Prism.

PPARγ = biological target: T2, PPARγ (Homo sapiens, UniProt P37231); test: PPARγ luciferase reporter assay; type: cell-based
T2 sequence (P37231 1-505): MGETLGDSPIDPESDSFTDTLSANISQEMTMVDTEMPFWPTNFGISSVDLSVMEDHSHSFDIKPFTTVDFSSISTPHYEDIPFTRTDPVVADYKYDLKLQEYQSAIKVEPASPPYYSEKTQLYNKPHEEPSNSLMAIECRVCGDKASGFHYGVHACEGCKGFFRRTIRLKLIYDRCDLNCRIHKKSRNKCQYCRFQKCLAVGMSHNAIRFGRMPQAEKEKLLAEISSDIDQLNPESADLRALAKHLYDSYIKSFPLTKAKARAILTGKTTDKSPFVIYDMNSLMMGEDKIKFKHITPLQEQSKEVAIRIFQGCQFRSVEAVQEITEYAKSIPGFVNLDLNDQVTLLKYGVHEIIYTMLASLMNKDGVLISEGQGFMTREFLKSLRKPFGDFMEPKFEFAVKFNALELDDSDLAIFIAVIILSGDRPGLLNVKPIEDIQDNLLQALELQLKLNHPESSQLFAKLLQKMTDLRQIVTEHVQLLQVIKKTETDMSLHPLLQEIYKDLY
Procedure: as §1, §2
The PPAR activity assays were repeated as described above using both (+)-KDT501(12.5, 6.25, 3.125, 1.56, and 0.78 μM) and (−)-KDT501 (25, 12.5, 6.25, 3.125, 1.56, and 0.78 μM).

[1] = biological target: T3, peroxisome proliferator-activated receptor gamma (PPARγ) (Homo sapiens, UniProt P37231); test: Competitive binding to PPARγ ([3H]rosiglitazone)
T3 sequence (P37231 1-505): T2 sequence (P37231 1-505)

[2] = biological target: T4, angiotensin II receptor type II (AGTR2) (Homo sapiens, UniProt P50052); test: Competitive binding to AGTR2 ([125I]CGP 42112A); conditions: binding target AGTR2; competitor ligand Angiotensin-II
T4 sequence (P50052 1-363): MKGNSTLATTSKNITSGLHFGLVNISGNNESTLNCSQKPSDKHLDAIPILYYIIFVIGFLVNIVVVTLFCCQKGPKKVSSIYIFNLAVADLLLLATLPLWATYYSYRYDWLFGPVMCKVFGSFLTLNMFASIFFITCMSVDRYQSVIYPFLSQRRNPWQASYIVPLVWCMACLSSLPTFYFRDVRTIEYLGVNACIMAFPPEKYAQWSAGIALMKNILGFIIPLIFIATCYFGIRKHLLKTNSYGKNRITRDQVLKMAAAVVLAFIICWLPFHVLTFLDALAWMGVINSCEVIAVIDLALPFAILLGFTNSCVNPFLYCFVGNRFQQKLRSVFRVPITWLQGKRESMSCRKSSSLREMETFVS

PPARα = biological target: T5, PPARα (Homo sapiens, UniProt Q07869); test: PPARα luciferase reporter assay; type: cell-based; conditions: reporter cells, 20 hours
T5 sequence (Q07869 1-468): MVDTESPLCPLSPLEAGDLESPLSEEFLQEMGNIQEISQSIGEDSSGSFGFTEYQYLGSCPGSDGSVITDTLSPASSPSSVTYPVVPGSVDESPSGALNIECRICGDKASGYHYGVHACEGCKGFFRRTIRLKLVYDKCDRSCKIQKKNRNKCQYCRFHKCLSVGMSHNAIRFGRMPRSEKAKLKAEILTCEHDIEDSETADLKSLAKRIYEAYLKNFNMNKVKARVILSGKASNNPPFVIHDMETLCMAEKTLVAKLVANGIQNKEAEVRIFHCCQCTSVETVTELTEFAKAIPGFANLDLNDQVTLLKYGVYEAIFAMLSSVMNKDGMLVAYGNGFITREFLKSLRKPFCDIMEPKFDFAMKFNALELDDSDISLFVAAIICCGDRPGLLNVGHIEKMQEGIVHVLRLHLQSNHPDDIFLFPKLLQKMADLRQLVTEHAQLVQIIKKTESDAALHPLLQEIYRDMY
Procedure: as §1, §2

Human DAPK1, sequence (P53355 whole entry): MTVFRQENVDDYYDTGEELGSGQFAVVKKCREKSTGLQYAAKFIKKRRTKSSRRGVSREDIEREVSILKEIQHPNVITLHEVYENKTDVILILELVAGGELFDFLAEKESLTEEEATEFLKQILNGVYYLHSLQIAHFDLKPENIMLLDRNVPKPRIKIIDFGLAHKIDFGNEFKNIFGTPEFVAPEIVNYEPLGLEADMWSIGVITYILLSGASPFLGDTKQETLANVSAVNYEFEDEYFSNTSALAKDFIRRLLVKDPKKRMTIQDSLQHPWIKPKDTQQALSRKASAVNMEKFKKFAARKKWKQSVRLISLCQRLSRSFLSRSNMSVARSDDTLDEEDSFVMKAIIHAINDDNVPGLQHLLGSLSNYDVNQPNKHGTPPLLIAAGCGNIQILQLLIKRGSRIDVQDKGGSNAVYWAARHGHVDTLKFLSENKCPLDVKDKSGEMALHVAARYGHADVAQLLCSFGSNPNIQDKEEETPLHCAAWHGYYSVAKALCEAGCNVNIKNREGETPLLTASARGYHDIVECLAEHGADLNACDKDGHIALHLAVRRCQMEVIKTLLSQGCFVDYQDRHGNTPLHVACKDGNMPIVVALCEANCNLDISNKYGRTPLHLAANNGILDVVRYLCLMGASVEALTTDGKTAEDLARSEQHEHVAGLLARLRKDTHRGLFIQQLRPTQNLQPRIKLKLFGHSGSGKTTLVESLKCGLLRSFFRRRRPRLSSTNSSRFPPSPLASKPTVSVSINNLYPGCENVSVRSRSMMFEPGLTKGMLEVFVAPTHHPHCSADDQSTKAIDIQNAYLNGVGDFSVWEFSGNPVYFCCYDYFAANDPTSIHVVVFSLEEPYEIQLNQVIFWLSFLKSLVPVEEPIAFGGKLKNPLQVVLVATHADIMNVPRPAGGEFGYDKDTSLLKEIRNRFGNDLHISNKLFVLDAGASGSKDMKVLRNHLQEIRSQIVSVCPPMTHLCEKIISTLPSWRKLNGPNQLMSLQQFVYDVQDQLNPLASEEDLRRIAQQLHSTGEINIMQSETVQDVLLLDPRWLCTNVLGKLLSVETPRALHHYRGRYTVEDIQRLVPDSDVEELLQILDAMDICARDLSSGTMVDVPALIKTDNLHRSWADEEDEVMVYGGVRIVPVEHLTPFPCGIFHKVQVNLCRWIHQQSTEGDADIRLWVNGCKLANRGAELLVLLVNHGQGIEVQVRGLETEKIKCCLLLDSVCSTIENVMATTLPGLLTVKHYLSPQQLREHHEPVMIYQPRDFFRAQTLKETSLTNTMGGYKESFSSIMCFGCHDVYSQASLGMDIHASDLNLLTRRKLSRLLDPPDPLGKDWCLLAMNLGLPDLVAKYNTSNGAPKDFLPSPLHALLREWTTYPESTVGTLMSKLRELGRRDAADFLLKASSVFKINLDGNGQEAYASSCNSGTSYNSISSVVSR

CC(C)CCC(=O)[C@]1(O)C(O)=C(C(=O)CC(C)C)C(=O)[C@H]1CCC(C)C [(−)-KDT501]
IC50 (Human DAPK1): 40.9 µM | PPARδ activity (PPARδ): little or no effect | PPARγ reporter activity (RLU) (PPARγ; concentration of test compound 3.13 μM): 547 RLU | PPARγ reporter activity (RLU) (PPARγ; concentration of test compound 6.25 μM): 972 RLU | PPARγ reporter activity (RLU) (PPARγ; concentration of test compound 12.5 μM): 2407 RLU | PPARγ reporter activity (RLU) (PPARγ; concentration of test compound 25 μM): 4244 RLU | PPARγ activity (PPARγ; reporter cells, 20 hours): increased PPARγ activity, but to a significantly lesser degree than (+)-KDT501 | IC50 [1]: 30 µM | Ki [1]: 16 µM | nH ([1]; binding target PPARγ, competitor ligand Rosiglitazone): 1.1 | IC50 [2]: 32 µM | Ki [2]: 16 µM | nH [2]: 0.9 | PPARα activity (PPARα): little or no effect

— patent publication US8410178B2, “CIS 3,4-dihydroxy-2-(3-methylbutanoyl)-5-(3-methylbutyl)-4-(4-methylpentanoyl)cyclopent-2-en-1-derivatives, substantially enantiomerically pure compositions and methods” (KinDex Therapeutics, LLC, priority 2010, dated 2013)
